Patent US20180271470A1, “METHODS FOR QUANTIFYING PANCREATIC BETA CELL FUNCTION AND MASS PROPERTIES WITH RADIOMANGANESE POSITRON EMISSION TOMOGRAPHY” (Wisconsin Alumni Research Foundation, priority 2017, published 2018)

Columns and labels:
[1] = test system: isolated ob/ob mouse islets; assay: Uptake of ^52Mn^2+ in isolated islets under stimulatory or inhibitory conditions; format: cell-based; conditions: 15 min incubation
Experimental: Mouse pancreatic islets were isolated by collagenase digestion. Briefly, mice were placed under shallow anesthesia and sacrificed via cervical dislocation. The mouse common bile duct was cannulized and 3-5 mL of an ice-cold solution containing type XI collagenase (0.5 mg/mL; Sigma Aldrich, St. Louis, Mo.) and bovine serum albumin (BSA; 0.2 mg/mL; Sigma Aldrich, St. Louis, Mo.) in Hank's balanced salt solution (HBSS; Invitrogen, Carlsbad, Calif.) was injected into the mouse pancreas. After inflation, the pancreas was removed, placed in a glass vial containing 5 mL of the collagenase solution, and incubated in a shaking water bath at 37° C. Samples were digested for approximately 30 min after which the digests were centrifuged at 50×g for 2 min and islet pellets were washed three times with 30 mL of an ice-cold BSA (0.2 mg/mL) in HBSS solution. The pellet was resuspended and islets handpicked into 35 mm petri dishes. Following isolation, islets were placed in RPMI1640 media supplemented with penicillin (100 U/mL; Invitrogen), streptomycin (100 μg/mL; Invitrogen), and FBS [10% (wt/vol); Sigma] and incubated overnight at 37° C. in a 5% CO2 atmosphere.
The uptake of ^52Mn^2+ by murine islets of Langerhans was determined under several stimulatory or inhibitory conditions. Batches of 50 islets were transferred into 0.45 μm filtered bottom 1 mL centrifuge vials (Thermo Fisher Scientific, Grand Island, N.Y.), 500 μL of Krebs-Ringer buffer (KRB: 118 mM NaCl, 5.4 mM KCl, 2.4 mM CaCl, 1.2 mM MgSO4, 1 mM […], 20 mM HEPES; pH 7.4) containing a low glucose concentration (1 mM D-glucose) were added and the islets incubated for 30 min at 37° C. After removing the supernatant following centrifugation at 50×g for 5 min, 250 μL of KRB containing glucose, diazoxide (50 μM; Tocris Biosciences, Bristol, UK), or tolbutamide (250 μM; Selleckchem, Houston, Tex.) were added, and the vials were spiked with 370 kBq (10 μCi) of ^52Mn^2+. After 15 min of incubation, the solutions were filtered and islets were washed three times with KRB. The ^52Mn^2+ radioactivity in the islet pellets were measured in an automated gamma counter (Perkin Elmer).

[2] = ^52Mn^2+ PET and biodistribution in STZ type-1 diabetes model; format: in vivo, ICR mice; conditions: ICR female mice, single STZ 180 mg/kg IP, four days after induction
Experimental: Type 1 diabetes was induced in female ICR mice via a single IP injection of 180 mg/kg streptozotocin (STZ; MP Biomedical, LLC, Santa Ana, Calif.), a toxin that selectively destroys pancreatic beta cell. The injectable STZ solution (12.5 mg/mL) was prepared freshly in phosphate buffered saline (PBS). The weight of each mouse was measured daily, and blood glucose levels were recorded every other day with a glucometer (TRUEresult, Trividia Health Inc., Fort Lauderdale, Fla.) using blood samples collected from the tail vein. Mice were considered diabetic after two consecutive blood glucose readings above 250 mg/dL and were used for PET imaging studies one week after the injection of STZ. To evaluate ^52Mn^2+ pancreatic uptake on diabetic mice, 0.74 MBq (20 μCi) of activity were administered IV and static PET images recorded one hour after administration of the tracer. Ex vivo biodistribution was carried out following PET acquisition.

[3] = test system: ^52Mn^2+ pancreatic uptake; assay: Pharmacological manipulation of ^52Mn^2+ pancreatic uptake in vivo (PET and biodistribution); design: species or system ICR mice
Experimental: To investigate the specificity of ^52Mn^2+ for beta cells, a series of studies were performed where ^52Mn^2+ uptake was manipulated through the pharmacologic stimulation or inhibition of the insulin secretory pathway. In these experiments, 0.74-1.85 MBq (20-50 μCi) of ^52Mn^2+ was administered IV into either female ICR or C57BL/6J mice and static PET scans were acquired at one hour post injection. During tracer administration, mice were awake. Mice were only anaesthetized by isoflurane (1%) immediately before PET imaging.
To corroborate the correlation between ^52Mn^2+ pancreatic uptake and the mechanism of insulin release in beta cells, the insulin secretory pathways were stimulated in vivo using glucose and glibendamide (Tocris Biosciences, Bristol, UK), which promotes insulin release in beta cells via blockade of ATP-sensitive potassium channel (KATP). Mice were injected intraperitoneally (IP) with 100 μL of glucose (1 g/kg) or glucose (1 g/kg)+glibenclamide (5 mg/kg) in PBS, 15 min before the IV injection of 0.74-1.85 MBq (20-50 μCi)^52Mn^2+. Static PET scans were acquired one hour after the injection of the radiotracer, after which ex vivo biodistribution was performed.
Whole-body PET scans were acquired at one hour post injection, after which ex vivo biodistribution was performed.

[4] = test system: pancreatic uptake of ^52Mn^2+; assay: One hour biodistribution of ^52Mn^2+ in anesthetized (1% isoflurane) or awake mice; format: in vivo; conditions: 1% isoflurane vs awake, 1 h post injection, regardless of administration regime or glucose stimulation
Experimental: Previous reports have shown that most volatile anesthetics, including isoflurane, impair insulin secretion by inhibiting the deactivation of KATP channels. Plausibly, the observed decrease in pancreatic uptake of ^52Mn^2+ resulted from mice being anesthetized through the full extent of the studies during the dynamic PET scans. To investigate the impact of isoflurane anesthesia on pancreatic uptake, one hour post injection biodistribution experiments were performed under different administration conditions in either anesthetized (1% isoflurane) or awake mice.

[5] = OLINDA dosimetry calculations for Mn-51 and daughter Cr-51; design: species or system human; conditions: OLINDA input
Experimental: Due to the rapid blood clearance of Mn^2+, OLINDA (Organ Level INternal Dose Assessment) dosimetry calculations were performed assuming instant compartment localization with organ activity fractions equal to those measured by ex vivo biodistribution herein. Based on the previously measured lengthy organ residence times of Mn^2+, it was also assumed that the effective organ clearance half-life (Ter) was equal to the radioactive half-life of Mn-51 (t1/2: 45.6 min). It was also assumed that Mn-51 injections were 100% radionuclidically pure. In regards to the daughter isotope, Cr-51 (t1/2: 27.7 d), it was assumed that the activity remained in same organ compartments as the parent Mn-51 biodistribution without biological clearance. Standard radiation weighting factors were used (γ=1, β=1). Based on these assumptions, effective dose (ED) and effective dose equivalent (EDE) (units of mSv/MBq) were calculated for a standard adult male and female.

In the case of `OC[C@H]1OC(O)[C@H](O)[C@@H](O)[C@@H]1O` (some centres unmarked) [glucose], the “effect on ^52Mn^2+ uptake by islets” value ([1]; 10 mM glucose vs 1 mM glucose) is reported as “significantly enhanced”.

For `CCCCNC(=O)NS(=O)(=O)c1ccc(C)cc1` [tolbutamide], the “effect on ^52Mn^2+ retention by islets” value ([1]; glucose and tolbutamide 250 μM) was “significantly higher”.

For `CN(N=O)C(=O)N[C@@H]1[C@@H](O)[C@H](O)[C@@H](CO)O[C@@H]1O` [STZ, reference compound], the “blood glucose after induction” value [2] was over 250 mg/dL.

For `COc1ccc(Cl)cc1C(=O)NCCc1ccc(S(=O)(=O)NC(=O)NC2CCCCC2)cc1` [glibenclamide], the “effect on pancreatic SUV values” ([3]; glibenclamide 5 mg/kg IP (with glucose 1 g/kg) 15 min before ^52Mn^2+, 1 h post injection) was “significant enhancement”.

For `FC(F)OC(Cl)C(F)(F)F` (centres unmarked) [Isoflurane], the “effect on accumulation of ^52Mn^2+ in the pancreas” value [4] was “significantly inhibited”.

In the case of `[51Cr]` [Cr-51], the “Number of disintigrations, Total Body” value ([5]; Total Body) is reported as 7.20E+02 MBq-h/MBq, the “Number of disintigrations, Adrenals” value ([5]; source organ Adrenals) is reported as 0.00E+00 MBq-h/MBq and the “Number of disintigrations, Brain” value ([5]; source organ Brain) is reported as 3.93E+00 MBq-h/MBq. The “Number of disintigrations, Breasts” value ([5]; source organ Breasts) was 0.00E+00 MBq-h/MBq, the “Number of disintigrations, Cortical Bone” value ([5]; source organ Cortical Bone) was 7.48E−01 MBq-h/MBq and the “Number of disintigrations, Gallbladder Contents” value ([5]; source organ Gallbladder Contents) was 0.00E+00 MBq-h/MBq. For the same molecule, the “Number of disintigrations, Heart Contents” value ([5]; source organ Heart Contents) was 0.00E+00 MBq-h/MBq, the “Number of disintigrations, Heart Wall” value ([5]; source organ Heart Wall) was 2.10E+01 MBq-h/MBq and the “Number of disintigrations, Kidneys” value ([5]; source organ Kidneys) was 6.12E+01 MBq-h/MBq. For the same molecule, the “Number of disintigrations, LLI” value ([5]; source organ LLI) was 0.00E+00 MBq-h/MBq, the “Number of disintigrations, Liver” value ([5]; source organ Liver) was 5.58E+01 MBq-h/MBq and the “Number of disintigrations, Lungs” value ([5]; source organ Lungs) was 1.49E+01 MBq-h/MBq. For the same molecule, the “Number of disintigrations, Muscle” value ([5]; source organ Muscle) was 1.93E+00 MBq-h/MBq, the “Number of disintigrations, Ovaries” value ([5]; source organ Ovaries) was 0.00E+00 MBq-h/MBq and the “Number of disintigrations, Pancreas” value ([5]; source organ Pancreas) was 3.64E+01 MBq-h/MBq. The “Number of disintigrations, Red Marrow” value ([5]; source organ Red Marrow) was 0.00E+00 MBq-h/MBq, the “Number of disintigrations, Small Intestine” value ([5]; source organ Small Intestine) was 0.00E+00 MBq-h/MBq and the “Number of disintigrations, Spleen” value ([5]; source organ Spleen) was 8.12E+00 MBq-h/MBq. For the same molecule, the “Number of disintigrations, Stomach” value ([5]; source organ Stomach) was 1.23E+01 MBq-h/MBq, the “Number of disintigrations, Testes” value ([5]; source organ Testes) was 0.00E+00 MBq-h/MBq and the “Number of disintigrations, Thymus” value ([5]; source organ Thymus) was 0.00E+00 MBq-h/MBq. For the same molecule, the “Number of disintigrations, Thyroid” value ([5]; source organ Thyroid) was 0.00E+00 MBq-h/MBq, the “Number of disintigrations, Trabecular Bone” value ([5]; source organ Trabecular Bone) was 0.00E+00 MBq-h/MBq and the “Number of disintigrations, ULI” value ([5]; source organ ULI) was 5.70E+00 MBq-h/MBq. The “Number of disintigrations, Urinary Bladder Contents” value ([5]; source organ Urinary Bladder Contents) was 0.00E+00 MBq-h/MBq and the “Number of disintigrations, Uterus/Uterine Wall” value ([5]; source organ Uterus/Uterine Wall) was 0.00E+00 MBq-h/MBq.

With `CC1=NS(=O)(=O)c2cc(Cl)ccc2N1` [diazoxide, 7-Chloro-3-methyl-4H-1,2,4-benzothiadiazine 1,1-dioxide] the “decline in ^52Mn^2+ pancreatic uptake vs control” value ([3]; 20 mg/kg IP 10-15 min before IV ^52Mn^2+ bolus, PET 1 h post injection) was 44%, the “pancreatic ^52Mn^2+ uptake after drug (PET quantification)” value ([3]; 20 mg/kg IP 10-15 min before IV ^52Mn^2+ bolus, PET 1 h post injection, control 5.13±0.36 SUV) was 2.85±0.92 SUV and the “effect on PET signal within the pancreas” value ([3]; 20 mg/kg IP before ^52Mn^2+ bolus) was “significant (P<0.0001) abrogation”. For the same molecule, the “effect on glucose-stimulated ^52Mn^2+ uptake by islets” value ([1]; diazoxide 50 μM added to 10 mM glucose) was “blocked”.
